Experimental data as given in patent US7514432B2, “Compounds and methods of treating cell proliferative diseases, retinopathies and arthritis” (Exonhit Therapeutics SA, priority 2003, dated 2009).

Columns and labels:
HMEC1 [1] = test: Boyden chamber migration assay, HMEC1; assay type: cell-based; details: Homo sapiens, read-out: IC50, migration in Boyden chamber, HMEC1
Method: FIG. 4: Migration assays. (A) Wound healing assay in REF cells. 7.6 10^4 cells were plated on coverslips 48 hours before the experiment. The cells were pre-treated for 30 min. with the compounds, and then a scrape was done using a pipette tip. The scraped coverslips in treatment medium were put under a thermostated microscope coupled to a video camera. Movies were analyzed as described in material and methods, and velocity and total distance covered by the cells were evaluated. Bar graphs represent the mean±SEM of 2 to 4 experiments. (B) Boyden chamber migration assay in HMEC1, NIH3T3 and MDA-MB-231 cells. 5 10^4 to 7.5 10^4 Cells, resuspended in culture medium with or without FBS and with different compound concentrations, were seeded in the upper Boyden blind well on top of 8 μm pore-sized filters. The ability of the cells to migrate through the filter was assayed in the absence or presence of FBS in the lower Boyden chamber. After 16 hours incubation, the medium was removed and replaced with calcein-AM containing medium. After labeling, cells were washed with HBSS and fluorescence was read in a fluorescence plate reader. Fluorescence values were normalized against the fluorescence obtained for the 1% DMSO control. The data plotted are the means±SEM of 2 to 4 independent experiments.
An essential characteristic of malignant cells is their ability to migrate, invade host tissues and to produce metastases. In order to evaluate the capacity of one compound to affect the ability of tumoral cells to migrate, migration assays were performed using highly invasive tumoral cells MDA-MB-231, endothelial cells HMEC1 or fibroblastic cells NIH3T3. This assay was performed using Falcon HTS Fluoroblock inserts. […] Fluorescence data were collected using Fluoroskan Ascent FL fluorescence plate reader at an excitation wavelength (Ex) of 485 nm and emission wavelength (Em) of 517 nm. Only those labelled cells that passed through the Matrigel layer and the membrane were detected. […]

MCF7 = test: Cell viability assay (MTT), MCF7; assay type: cell-based; details: Homo sapiens, 10% FBS, 1% DMSO
Method: Table 12: 6-day cell viability assay (MTT) in the presence of 10% Fetal Bovine Serum and 1% DMSO, in HMEC1, HCT116, MDA-MB-231, MCF7 and NIH3T3 cell lines. 3 10^3 to 15 10^3 cells were seeded in 48-well plates in growth medium containing 10% FBS, with or without various concentrations of test compounds. Cell cultures were fed every 3 days with the appropriate media. Cell viability was determined on day 6. Data were analyzed and IC50s were calculated from dose-response curves using GraphPad Prism. Results summarized in the tables are mean±SEM of 1 to 8 independent experiments.
Table 14: 3-day cell viability assay (MTT) in the presence of 10% Fetal Bovine Serum and 1% DMSO, in DLD1, HCT116, MDA-MB-231, MCF7 and HeLa cells. 7.5 10^3 to 1.5 10^4 cells were seeded in 48-well plates in growth medium containing 10% FBS, with or without various concentrations of test compounds. Data were analyzed and IC50s were calculated from dose-response curves using GraphPad Prism. Results summarized in the tables are mean±SEM of 1 to 7 independent experiments.
In order to determine a compound's effect on cell viability, microculture tetrazolium assays (MTT) were performed as described by Carmichael et al. (1996) with modifications. Four human tumoral cell lines, namely HCT116 colon adenocarcinoma, H460 lung carcinoma, MCF-7 and MDA-MB-231 breast carcinoma cell lines, DLD1 colorectal adenocarcinoma, HeLa adenocarcinoma, HepG2 hepatocellular carcinoma. 3 immortalized but non tumorigenic cell lines, namely NIH3T3 mouse fibroblasts (American Type Culture Collection) and primary hepatocytes (Biopredic international), cultured according to their recommendations together with Human Microvasculature Endothelial Cell line HMEC1 (National Center for Infectious Diseases). Briefly, cells were seeded in 48-well plates 24 hours before drug addition. Cells were treated with 0 to 200 μM (11 concentrations) of compound solubilized in DMSO, adjusting the final concentration of DMSO to 1% in the well. 16 hours, and three or six days after treatment, 0.5 mg/ml MTT (Sigma) was added to the medium and cells were incubated for 1-5 hours at 37° C. before solubilization of formazan crystals in 100% DMSO. Absorbance was measured using a spectrophotometer at a wavelength of 550 nm. Data was analyzed using the GraphPad Prism software (GraphPad Software, Inc.), and IC50 (dose leading to 50% cell death) was calculated from the dose-response curves.

HMEC1 [2] = test: Cell viability assay (MTT), HMEC1; assay type: cell-based, Human; details: MTT, 10% FBS, 6-day treatment, 1% DMSO
Outline: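 HMEC1 cells seeded 24 h before dosing, then exposed to 0–200 μM compound (11 concentrations) in medium with 10% FBS and 1% DMSO final, refed every 3 days. Viability read on day 6 by MTT (0.5 mg/ml, 1–5 h at 37 °C), absorbance 550 nm; IC50 from dose-response curves, mean±SEM of 1–8 experiments.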

[3] = HMEC-1, FBS as chemoattractant, 16 hours

| Structure (SMILES) | IC50 (HMEC1 [1]; HMEC-1, 16 h) | IC50 (MCF7; MCF7, 72 h, 3-day treatment) | IC50 (MCF7; MCF7, 144 h, 6-day treatment) | IC50 (HMEC1 [2]; Homo sapiens, HMEC-1, 144 h) | IC50 (HMEC1 [1]; [3]) | IC50 (HMEC1 [2]; trihydrochloride) |
| --- | --- | --- | --- | --- | --- | --- |
| Cl.Cl.O=c1cc(CN2CCOCC2)occ1OCCCCCSc1ccnc2cc(C(F)(F)F)ccc12 [EHT 1864, 5-(5-(7-(Trifluoromethyl)quinolin-4-ylthio)pentyloxy)-2-(morpholinomethyl)-4H-pyran-4-one dihydrochloride] | 7.8 ± 1.7 µM | 15.2 µM | 5.6 µM | 27.4 µM |  |  |
| Cl.Cl.Cl.O=c1cc(CN2CCNCC2)occ1OCCCCCSc1ccnc2cc(C(F)(F)F)ccc12 [EHT 8560, 5-(5-(7-(Trifluoromethyl)quinolin-4-ylthio)pentyloxy)-2-((piperazin-1-yl)methyl)-4H-pyran-4-one trihydrochloride] |  | 9.2 µM |  | < 10 µM | 9.5 ± 0.3 µM | 6.1 µM |
| CN1CCN(Cc2cc(=O)c(OCCCCCSc3ccnc4cc(C(F)(F)F)ccc34)co2)CC1.Cl.Cl.Cl [EHT 9241, 5-(5-(7-(Trifluoromethyl)quinolin-4-ylthio)pentyloxy)-2-((4-methylpiperazin-1-yl)methyl)-4H-pyran-4-one trihydrochloride] |  | 7.5 µM | 1.2 µM | < 10 µM | 9.1 ± 1.4 µM | 8.2 µM |
